Legend:
[1] = Aqueous stability over 48 hours; type: physicochemical; conditions: aqueous PBS and 50:50 aqueous PBS:acetonitrile, room temperature
Protocol: Aqueous stability for the probe was assessed using two solvent systems (100% aqueous PBS, and 50:50 aqueous PBS: acetonitrile). The probe stability was measured in aqueous PBS (no antioxidants or other protectants, DMSO concentration below 0.1%, room temperature) and the results are reported as circles in the graph in FIG. 4. The probe stability was also measured in 50:50 aqueous PBS and acetonitrile and the results are reported as squares in the graph in FIG. 4. Stability data in each case is depicted as the loss of compound with time over 48 hours with a minimum of six time points and providing the percent compound remaining after 48 hours.

[2] = Plasma protein binding, human; type: in vitro ADME
[3] = Hepatic microsome stability, mouse; type: in vitro ADME; conditions: 37° C.
[4] = tested on: UPEC; assay: Emergence of spontaneous resistance on exposure to probe; type: cell-based, Escherichia coli; conditions: range of concentrations
From the text: The probe described herein is entirely novel with the only precedent being the structurally dissimilar molecule 2-(4-phenylphenyl)benzo[g]quinoline-4-carboxylic acid that we previously described in proof-of-concept studies (33). The probe described herein is uniquely poised for development as an infection-specific prevention and treatment therapeutic that enhances natural immune clearance of an infection, namely UTI. […] However, the probe has no effect on in vitro growth and viability of UPEC in the absence of immune factors. […] Furthermore, this probe would be expected to act upon traditional antibiotic resistant strains of E. coli.

SMILES: CCOc1ccc(-c2cc(NC(=O)c3c(F)cccc3F)c(C(=O)O)s2)cc1 [ML317, 3-(2,6-difluorobenzamido)-5-(4-ethoxyphenyl)thiophene-2-carboxylic acid]
- Aqueous stability [1]: stable
- Plasma Protein Binding (% Bound) ([2]; 1 μM): 99.68 % Bound
- Plasma Protein Binding (% Bound) ([2]; 10 μM): 99.85 % Bound
- Hepatic Microsome Stability, % remaining at 1 hr [3]: 74.3 % remaining
- Emergence of spontaneous resistance in the laboratory [4]: has not resulted in the emergence of spontaneous resistance
